These results are taken from patent US20210386754A1, “COMPOSITIONS AND METHODS FOR TREATING ATHEROSCLEROTIC VASCULAR DISEASE” (AUGUSTA UNIVERSITY RESEARCH INSTITUTE, INC., priority 2020, published 2021).

“Also recorded” adds a separate entry of the source.

Data set [1] relates to lipopolysaccharide (LPS)-treated ApoE-/- mice. To be noted: Zhao et al. 2012; cited from earlier work.
Data set [2] concerns pre-hypertensive patients. Conditions: amiloride monotherapy; independent of blood pressure lowering effect; cited from earlier work.
For data set [3], the system named is macropinocytosis in macrophages. The data set is described as follows: Unbiased screen of FDA-approved drug library for inhibition of macrophage macropinocytosis. To be noted: screen of an FDA-approved drug library. It counts as cell-based.
The next data set relates to THP-1 macrophages. The data set is described as follows: Foam cell formation / nLDL macropinocytosis, Nile Red FACS. To be noted: for macropinocytosis of nLDL (Nile Red fluorescence): M-CSF 100 ng/mL, PDGF 200 ng/mL. It counts as cell-based, human. The procedure:
Flow cytometry experiments were performed using the BD Accuri C6 flow cytometer using a standard protocol.
Foam cell formation: THP-1 macrophages or bone marrow-derived macrophages were treated with vehicle, known macropinocytosis stimulators (PMA 1 μM, M-CSF 100 ng/mL or PDGF 200 ng/mL)+/− macropinocytosis inhibitors (imipramine 10 μM or EIPA 25 μM; 1 hour pre-incubation) in the presence of nLDL, ox-LDL, or ac-LDL ([…]) for 24 hours. Cells were fixed in 2% PFA and stained with Nile Red (50 ng/mL) for 7 min. Fluorescence intensity was measured using the FL3 channel for Nile Red (Ex: 488 nm, Em: 670 nm).

The test system of data set [4] is hypercholesterolemic mice (PCSK9-AAV-mediated LDLR knockdown). The data set is described as follows: Atherosclerosis model: PCSK9-AAV, partial LCA ligation, Western diet. It is filed as in vivo, mouse. An excerpt: Mice were given a single injection of AAV-PCSK9 (1×1011 VG) and fed a Western diet (Envigo, TD.88137, Indianapolis, Ind.). One week after AAV-PCSK9 injection, mice underwent partial carotid ligation surgery as previously described (67) and Western diet was continued for another 3 weeks. In separate experiments, mice were given a single injection of AAV-PCSK9 (1×1011 VG) and fed a Western diet for 16 weeks. Mice were anesthetized (isoflurane inhalation, 3%) and exsanguinated. Blood was collected from left ventricle using a heparinized syringe fitted with a 21 G needle. Aortic arch and carotid arteries were collected, and gross macroscopic images were acquired. For molecular histology studies, carotids and aortic arch were fixed in 4% paraformaldehyde (PFA), embedded in OCT compound and stored at −80° C. until use.
ORO staining: Atherosclerosis development in carotid arteries and whole aorta were studied initially by gross imaging followed by Oil Red O (ORO) staining and plaque quantification. Briefly, the entire aorta was isolated, cleaned of peri-adventitial fat, fixed and imaged on the surface of black silicone-coated dissection dishes. Left carotid arteries were embedded in OCT and 10 μm thick cross-sections were prepared. The arteries were divided into 3 regions based on their distance from the aortic arch: proximal (0-400 μm), middle (2,000-2,400 μm) and distal (4,000-4,400 μm). Frozen sections and whole aortas were then stained with ORO solution (2%) and images were taken using light microscope equipped with a camera under 20× and 1.6× objective lens. The total area, lumen area and ORO positive area were measured for six sections/anatomical position per mouse using Image J software. The ratio of ORO positive area to arterial area is represented as plaque area. Plasma total cholesterol concentrations were determined by the Amplex™ Red Cholesterol Assay Kit (ThermoFisher, Rockford, Ill.). Plasma lipid profiles were obtained by column fractionation and measurements of fraction cholesterol content.
Hematoxylin and Eosin (H&E) or Masson's trichrome staining: Frozen sections were also used for Hematoxylin and Eosin (H&E) or Masson's trichrome staining following standard procedures to evaluate the lesion size and collagen content, respectively.
Orcein and Martius Scarlet Blue (OMSB) staining: OMSB was used for qualitative and quantitative analysis of atherosclerotic plaques as previously described. Briefly, left carotid arteries were dissected out, fixed in 4% buffered paraformaldehyde (pH=7.4) for at least 48 hr, and then routinely processed and embedded in paraffin (tissue processor TP1020; Leica, Wetzlar, Germany). Cross sections were cut every 5 m along the artery (starting from the proximal end) and mounted serially on silanized slides. Sections were stained and mounted automatically using Leica ST5010 Autostainer XL combined with Leica CV5030 Glass Coverslip. Deparaffinized sections through xylene and ethanol, and rehydrate to water. Postfix sections in Bouin's fixative at 56° C. for 1 hour, then rinse for 10 min in tap water to remove traces of picric acid. Stain with orcein for 20 min at 56° C. Differentiate in acidic alcohol for 2 min and then transfer to 96% ethanol for 30 s. Stain with martius yellow for 3 min and rinse in distilled water (2×2 min). Stain with crystal scarlet for 10 min. Differentiate with phosphotungstic acid 2 min and transfer to distilled water (for about 10 s). Stain with methyl blue 5 min. Rinse in acetic acid water 3 min, dehydrate through ethanol and carbol-xylene, clear in xylene, and mount in DPX or other resin. Staining of collagen with picrosirius red. The sections were examined and digital images of stained arteries were recorded using Olympus dotSlide system (Olympus, Tokyo, Japan). Segmentation algorithm allowed to distinguish vessel wall area, lumen area, plaque area, and area of the plaque occupied by collagen. The results were presented as areas of identified components in μm2. […]

For data set [5] the following is noted: cited from earlier work.
Setting [6] is: imipramine-treated vs control mice.

Regarding `N=C(N)NC(=O)c1nc(Cl)c(N)nc1N` [amiloride], in data set [1], the lesion development result is “reduces”. Moreover, the “pulse wave velocity (PWV)” value in data set [2] is “improves”.

Turning to `CN(C)CCCN1c2ccccc2CCc2ccccc21` [imipramine], the IC50 in data set [3] was 131 nM. Also, in the data set with THP-1 macrophages (imipramine 1 hour preincubation, 100 ng/mL M-CSF or 200 ng/mL PDGF, 50 μg/mL nLDL, 24 hours), the “M-CSF- and PDGF-induced intracellular lipid accumulation following nLDL treatment (Nile Red)” value is on record as “inhibited”. Moreover, in data set [4] (imipramine 9 mg/mL, pump rate 0.11 μl/hour, sc, LDLR-knockdown mice, vs vehicle), the “atherosclerotic lesion formation (OMSB staining)” value was “significantly attenuates; also recorded: attenuated”. Besides, in data set [4] (imipramine sc vs vehicle), the “collagen area (collagen %)” value is “inhibited” and the “relative internal vessel area (IVA %)” value is on record as “inhibited”. Moreover, in data set [4] (setting [6]), the blood pressure result is reported as “no significant differences”, the body weight result is “no significant differences”, the fat mass entry is recorded as “no significant differences” and the “whole body fluid content” value is “no significant differences”. In addition, the oral bio-availability in data set [5] is listed as 95%.

With PDGF, the “macropinocytosis of nLDL (Nile Red fluorescence)” value with THP-1 macrophages was “stimulated”.

Turning to catalase, in the data set with THP-1 macrophages (non-pegylated SOD 100 U/mL and/or catalase 250 U/mL, 1 hr pretreatment, 50 μg/mL nLDL, 24 hours), the “M-CSF- and PDGF-induced nLDL internalization” value is on record as “did not inhibit”.

B1: M-CSF: macrophage colony-stimulating factor, physiological stimulator of macropinocytosis (protein, UniProt P09603 33-554, looked up)
Macrophage colony-stimulating …: EEVSEYCSHMIGSGHLQSLQRLIDSQMETSCQITFEFVDQEQLKDPVCYLKKAFLLVQDIMEDTMRFRDNTPNAIAIVQLQELSLRLKSCFTKDYEEHDKACVRTFYETPLQLLEKVKNVFNETKNLLDKDWNIFSKNCNNSFAECSSQDVVTKPDCNCLYPKAIPSSDPASVSPHQPLAPSMAPVAGLTWEDSEGTEGSSLLPGEQPLHTVDPGSAKQRPPRSTCQSFEPPETPVVKDSTIGGSPQPRPSVGAFNPGMEDILDSAMGTNWVPEEASGEASEIPVPQGTELSPSRPGGGSMQTEPARPSNFLSASSPLPASAKGQQPADVTGTALPRVGPVRPTGQDWNHTPQKTDHPSALLRDPPEPGSPRISSLRPQGLSNPSTLSAQPQLSRSHSSGSVLPLGELEGRRSTRDRRSPAEPEGGPASEGAARPLPRFNSVPLTDTGHERQSEGSFSPQLQESVFHLLVPSVILVLLAVGGLLFYRWRRRSHQEPQRADSPLEQPEGSPLTQDDRQVELPV
Regarding B1, the “macropinocytosis of nLDL (Nile Red fluorescence)” value in the data set with THP-1 macrophages was “stimulated”.
